In brackets after ≈: the same amount, converted by molar mass. Where two headings read alike, the source gives them in different places.
Tests used:
[1] = system: Mycobacterium bovis BCG (recombinant strain); assay: microbe, parasite or virus in culture; format: cell-based; conditions: Mycobacterium tuberculosis variant bovis BCG, BCG, 144 h; 6 days 37° C.; read-out: MIC, column A, 3(S) compounds
[2] = system: Mycobacterium tuberculosis (rMTB); assay: In vivo antimycobacterial activity against M. tuberculosis (rMTB) in spleens of mice; parameters: species or system Mycobacterium tuberculosis Erdman, in female BALB/c mice; conditions: 25 mg/kg daily oral gavage, CM-2, 10 days, control 422,866 (PA-824, 636, 1297) or 362,274 (others)
[3] = system: Mycobacterium tuberculosis (rMTB); assay: In vivo antimycobacterial activity against M. tuberculosis (rMTB) in lungs of mice; parameters: species or system Mycobacterium tuberculosis Erdman, in female BALB/c mice; conditions: 25 mg/kg daily oral gavage, CM-2, 10 days, control 117,258 (PA-824, 636, 1297) or 22,751 (others)
Helicobacter felis = assay: In vivo activity against Helicobacter felis in mice (urease test of stomach biopsy); parameters: species or system in female CD-1 mice; conditions: 50 mg/kg three times daily oral gavage, CM-2, four days; vehicle and untreated 100
Method: Female CD-1 mice weighing 30 grams were infected by oral gavage with 10^8 -10^9 colony forming units of H. felis. This infection process was repeated two, and four days, thereafter. Colonization of the stomach was allowed to occur over a seven day period. Animals were segregated into groups of five, and were treated three times daily by oral gavage with 50 mg/kg of test drugs prepared in the CM-2 formulation vehicle (Example 52). Treatment continued for four days. One group of animals received an equal volume of formulation vehicle alone, to ensure that the vehicle had no effect on the Helicobacter infection. A separate untreated control group was also included.
All animals were then sacrificed, the stomachs were removed, opened, and the contents washed out. A five millimeter diameter biopsy was removed, and transferred to a urease test solution containing a pH-sensitive dye, which was then incubated at 37° C. incubator for 24 hours. A blue or purple coloration in this test solution signifies a positive reaction, indicating the continued presence of viable Helicobacter bacteria; a negative result is indicated by a yellow coloration. Viable Helicobacter bacteria produce a urease enzyme which converts urea, of which there is an abundant supply in the stomach (from saliva and gastric juices), into bicarbonate and ammonia, which are strong bases. This mechanism is considered to provide conditions more amenable to the survival of Helicobacter in the otherwise acidic conditions prevalent in the stomach.

Helicobacter pylori = assay: In vitro inhibition of Helicobacter pylori (broth microdilution MIC); conditions: for MIC: Helicobacter pylori
[4] = system: Helicobacter pylori Strain 4187E; assay: In vivo activity against Helicobacter pylori strain 4187E in mice; parameters: species or system in outbred female white mice; conditions: oral gavage, four days
From the text: Outbred female white mice (20 grams) were infected by oral gavage with 10^7 -10^8 colony forming units of H. pylori strain 4187E (originally isolated from a patient with a duodenal ulcer). […] Treatment continued for four days. Clarithromycin, administered at the same concentration and for the same duration, was included as a positive control. One group of animals also received an equal volume of formulation vehicle alone, to provide a negative control.
Five days after cessation of treatment, all animals were sacrificed, the stomachs were removed, opened, and the contents washed out. The entire mucosal surface was then spread evenly over the surface of an agar plate containing antibiotics appropriate for the prevention of growth of microorganisms other than Helicobacter spp. After seven days incubation under microaeropilic conditions at 37° C., culture plates were evaluated for bacterial growth.

[5] = system: Clostridium difficile ATCC 17857; assay: In vitro inhibition of Clostridium difficile (Oxyrase broth microdilution MIC); format: cell-based; conditions: Clostridioides difficile, ATCC17857; Clostridium difficile ATCC 17857, Oxyrase broth; read-out: MIC, column D, 3(S) compounds
Cryptosporidium parvum = assay: Inhibition of Cryptosporidium parvum (ELISA, infected HCT-8 monolayers); format: cell-based; conditions: Cryptosporidium parvum, HCT-8, 48 h, read-out: Percent Inhibition of C. parvum
Method: Susceptibility testing against Cryptosporidium was performed according to published procedures (K. Woods, M. Nesterenko, S. Upton, "Development of a microtiter ELISA to quantify development of Cryptosporidium parvum in vitro," FEMS Microbiology Letters, 128:89-94 (1995).
Compounds were solubilized to a concentration of 100 mg/mL in 100% DMSO. DMSO solutions of test compounds were added to the test wells of a microplate at a volume that produced a final concentration of DMSO of 0.2%. Monolayers of human ileocecal adenocarcinoma cells (HCT-8) were prepared by growth in RPMI 1640 medium in 96-Well tissue culture trays for 24 h. Oocysts of C. parvum were allowed to excyst in 10% bleach for 10 min prior to use. Monolayers were then infected with 2-3×10^4 oocysts/well and incubated in the presence or absence of compound for 48 h at 35° C. in 5% CO2 and 95% humidity. Background consisted of wells containing killed oocysts (freeze thaw cycle following 30 sec exposure to liquid nitrogen). Growth control wells were infected with 2-3×10^4 oocysts/well in the absence of test compounds. At the end of incubation, wells were washed and fixed by adding 100 uL of 4% formalin in phosphate buffered saline (pH 7.3) per well for 2 h. After blocking with 1% bovine serum albumin, and 0.002% Tween 20, 50 uL of rat anti-Cryptosporidium membrane protein antiserum was added. After 30 min, wells were washed in PBS and 50 uL of secondary antibody (goat anti-rat antibody conjugated with horseradish peroxidase) was added. After 20-30 min, wells were washed again in PBS and 50 uL of 3,3',5,5'-tetramethylbenzidine solution was added. Plates were allowed to develop for 10-15 min and the optical density was read at 630 nm. Percent inhibition was calculated by comparing the optical density of the drug treated group to that of the untreated control.

[6] = 72 h, read-out: MIC against Helicobacter pylori, strain B40, Met-S, Clar-S (Table 5B)
[7] = 72 h, read-out: MIC against Helicobacter pylori, strain B76, Met-R, Clar-S (Table 5B)
[8] = 72 h, read-out: MIC against Helicobacter pylori, strain C1649, Met-R, Clar-R (Table 5B)
[9] = 72 h, read-out: MIC against Helicobacter pylori, strain C11403, Met-S, Clar-R (Table 5B)
[10] = 72 h, read-out: MIC against Helicobacter pylori, strain C19765 (Table 5B)
[11] = 72 h, read-out: MIC against Helicobacter pylori, strain RD26, Met-S, Clar-S (Table 5B)
[12] = 72 h, read-out: MIC against Helicobacter pylori, strain rd26, Met-S, Clar-S (Table 5B)
[13] = ATCC43504, 72 h, read-out: MIC against Helicobacter pylori, strain ATCC 43504, Met-R, Clar-S (Table 5B)
[14] = ATCC43526, 72 h, read-out: MIC against Helicobacter pylori, strain ATCC 43526, Met-R, Clar-S (Table 5B)
[15] = ATCC43579, 72 h, read-out: MIC against Helicobacter pylori, strain ATCC 43579, Met-S, Clar-S (Table 5B)
[16] = ATCC43629, 72 h, read-out: MIC against Helicobacter pylori, strain ATCC 43629, Met-S, Clar-S (Table 5B)

Structure (SMILES)	MIC [1]	Average RLUs, M. tuberculosis (rMTB) in spleens [2]	Average RLUs, M. tuberculosis (rMTB) in lungs [3]	MIC (Helicobacter pylori; [6])	MIC (Helicobacter pylori; [7])	MIC (Helicobacter pylori; [8])	MIC (Helicobacter pylori; [9])	MIC (Helicobacter pylori; [10])	MIC (Helicobacter pylori; [11])	MIC (Helicobacter pylori; [12])	MIC (Helicobacter pylori; [13])	MIC (Helicobacter pylori; [14])	MIC (Helicobacter pylori; [15])	MIC (Helicobacter pylori; [16])	also measured
O=C(Nc1ccc(C(F)(F)F)cc1)O[C@@H]1COc2nc([N+](=O)[O-])cn2C1 [PA-1327, 4-(Trifluoromethyl)phenyl Carbamate of 3S Hydroxy-6-nitro-2H-3,4-dihydo-[2-1b]imidazopyran]	0.25 µg/mL (≈ 0.672 µM)	68,362 RLUs	1,561 RLUs	–	–	–	–	–	–	–	–	–	–	–	–
O=C(N[C@@H]1COc2nc([N+](=O)[O-])cn2C1)OCc1ccc(OC(F)(F)F)cc1 [PA-1343]	0.015 µg/mL (≈ 0.0373 µM)	51,928 RLUs	606 RLUs	0.8 µg/mL (≈ 1.99 µM)	12 µg/mL (≈ 29.8 µM)	12 µg/mL (≈ 29.8 µM)	1.5 µg/mL (≈ 3.73 µM)	12 µg/mL (≈ 29.8 µM)	3 µg/mL (≈ 7.46 µM)	2 µg/mL (≈ 4.97 µM)	10 µg/mL (≈ 24.9 µM)	12 µg/mL (≈ 29.8 µM)	1.5 µg/mL (≈ 3.73 µM)	3 µg/mL (≈ 7.46 µM)	% Survival (Helicobacter felis): 00%
CC[C@H]1OC(=O)[C@H](C)[C@@H](O[C@H]2C[C@@](C)(OC)[C@@H](O)[C@H](C)O2)[C@H](C)[C@@H](O[C@@H]2O[C@H](C)C[C@H](N(C)C)[C@H]2O)[C@](C)(OC)C[C@@H](C)C(=O)[C@H](C)[C@@H](O)[C@]1(C)O [Clarithromycin, reference compound]	–	–	–	< 0.015 µg/mL	< 0.015 µg/mL	> 4 µg/mL	4 µg/mL (≈ 5.35 µM)	< 0.015 µg/mL	0.03 µg/mL (≈ 0.0401 µM)	0.03 µg/mL (≈ 0.0401 µM)	0.03 µg/mL (≈ 0.0401 µM)	< 0.015 µg/mL	< 0.015 µg/mL	0.03 µg/mL (≈ 0.0401 µM)	% Eradication ([4]; twice daily 5 mg/kg): 0%; % Eradication ([4]; twice daily 50 mg/kg): 100%; MICs of control drugs relative to expected values (Helicobacter pylori; H. pylori ATCC 43): within the expected values; MIC (Helicobacter pylori; 72 h, read-out: MIC against Helicobacter pylori, strain 17 (Table 5A)): 0.016 µg/mL (≈ 0.0214 µM); MIC (Helicobacter pylori; 72 h, read-out: MIC against Helicobacter pylori, strain 19 (Table 5A)): 8 µg/mL (≈ 10.7 µM); MIC (Helicobacter pylori; 72 h, read-out: MIC against Helicobacter pylori, strain 20 (Table 5A)): 8 µg/mL (≈ 10.7 µM); MIC (Helicobacter pylori; 72 h, read-out: MIC against Helicobacter pylori, strain 40 (Table 5A)): 0.016 µg/mL (≈ 0.0214 µM); MIC (Helicobacter pylori; 72 h, read-out: MIC against Helicobacter pylori, strain 43 (Table 5A)): 0.008 µg/mL (≈ 0.0107 µM); MIC (Helicobacter pylori; 72 h, read-out: MIC against Helicobacter pylori, strain 76 (Table 5A)): 0.032 µg/mL (≈ 0.0428 µM); MIC (Helicobacter pylori; ATCC43504, 72 h, read-out: MIC against Helicobacter pylori, strain ATCC 43504 (Table 5A)): 0.06 µg/mL (≈ 0.0802 µM)
O=C(NCc1ccc(OC(F)(F)F)cc1)O[C@@H]1COc2nc([N+](=O)[O-])cn2C1 [PA-1328, 4-(Trifluoromethoxy)benzyl Carbamate of 3S Hydroxy-6-nitro-2H-3,4-dihydo-[2-1b]imidazopyran]	0.03 µg/mL (≈ 0.0746 µM)	251,264 RLUs	3,000 RLUs	–	–	–	–	–	–	–	–	–	–	–	–
O=[N+]([O-])c1cn2c(n1)OC[C@@H](OCc1ccc(C(F)(F)F)cc1)C2 [PA-636, 3S 4-(Trifluromethyl)benzyloxy-6-nitro-2H-3,4-dihydo-[2-1b]imidazopyran]	0.5 µg/mL (≈ 1.46 µM)	91,377 RLUs	5,790 RLUs	–	–	–	–	–	–	–	–	–	–	–	MIC [5]: 3.12 µg/mL (≈ 9.09 µM); inhibition at 25 µg/mL (Cryptosporidium parvum; 25 μg/mL): 14.5%; inhibition at 50 µg/mL (Cryptosporidium parvum; 50 μg/mL): 9.4%; inhibition at 100 µg/mL (Cryptosporidium parvum; 100 μg/mL): 21%; inhibition at 200 µg/mL (Cryptosporidium parvum; 200 μg/mL): 39%
